# Source: ChEMBL document CHEMBL3727346, “6-(pyridinyl)-4-pyrimidone derivates as tau protein kinase 1 inhibitors” (2011)
# The source made the active and inactive calls. The rule behind the calls is not given here.
# Biological target: Glycogen synthase kinase-3 beta splice variant X1 (Bos taurus) (UniProt A0A059UE90)
# Assay: Inhibition of bovine cerebral TPK1 assessed as reduction in P-GS1 phosphorylation using [32gammaP]ATP incubated for 2 hrs by liquid scintillation counting method
row,Structure (SMILES),inhibition
1,Cn1c(N2CCO[C@@H](c3ccc(N4CC[C@@H](N5CCCC5)C4)cc3)C2)nc(-c2ccncc2F)cc1=O,Active
2,COc1ccc(NC(=O)C2CC2)cc1[C@H]1CN(c2nc(-c3ccncc3F)cc(=O)n2C)CCO1,Active
3,Cn1c(N2CCO[C@@H](c3ccc(N4CC[C@H](N5CCOCC5)C4)cc3)C2)nc(-c2ccncc2F)cc1=O,Active
4,Cn1c(N2CCO[C@@H](c3ccc(CN4CCOCC4)cc3)C2)nc(-c2ccncc2F)cc1=O,Active
5,COc1ccc(C#N)cc1[C@H]1CN(c2nc(-c3ccncc3F)c(F)c(=O)n2C)CCO1,Active
6,Cn1c(N2CCO[C@@H](c3ccc(NC(=O)C4CCCC4)cc3)C2)nc(-c2ccncc2F)cc1=O,Active
7,Cn1c(N2CCO[C@@H](c3ccc(N4CC[C@@H](N5CCCCC5)C4)cc3)C2)nc(-c2ccncc2F)cc1=O,Active
8,Cn1c(N2CCO[C@@H](c3ccc(N4CCOCC4)cc3)C2)nc(-c2ccncc2F)cc1=O,Active
9,Cn1c(N2CCO[C@@H](c3ccc(N(C4CCCCC4)S(C)(=O)=O)cc3)C2)nc(-c2ccncc2F)cc1=O,Active
10,Cn1c(N2CCO[C@@H](c3ccc(NC(=O)CN4CCN(c5ccccc5)CC4)cc3)C2)nc(-c2ccncc2F)cc1=O,Active
11,COc1ccc(C(C)(C)O)cc1[C@H]1CN(c2nc(-c3ccncc3F)cc(=O)n2C)CCO1,Active
12,COc1ccc(N)cc1[C@H]1CN(c2nc(-c3ccncc3F)cc(=O)n2C)CCO1,Active
13,CC1CC1C(=O)Nc1ccc([C@H]2CN(c3nc(-c4ccncc4F)cc(=O)n3C)CCO2)cc1 (stereo partly specified),Active
14,Cn1c(N2CCO[C@@H](c3ccc(N4CC[C@@H](O)C4)cc3)C2)nc(-c2ccncc2F)cc1=O,Active
15,Cn1c(N2CCO[C@@H](c3ccc(OCCN4CCN(C(=O)c5ccccc5)CC4)cc3)C2)nc(-c2ccncc2F)cc1=O,Active
16,Cn1c(N2CCO[C@@H](c3ccc(NC(=O)C4CC4)cc3)C2)nc(-c2ccncc2F)cc1=O,Active
17,CN(C)[C@@H]1CCN(c2ccc([C@H]3CN(c4nc(-c5ccncc5F)cc(=O)n4C)CCO3)cc2)C1,Active
18,Cn1c(N2CCO[C@@H](c3ccc(NC4CCc5ccccc54)cc3)C2)nc(-c2ccncc2F)cc1=O (stereo partly specified),Active
19,Cn1c(N2CCO[C@@H](c3ccc(N4CCN(CCO)C4=O)cc3)C2)nc(-c2ccncc2F)cc1=O,Active
20,Cn1c(N2CCOC(c3ccc4c(c3)C(C)(C)CC(=O)N4)C2)nc(-c2ccncc2F)cc1=O (racemic),Active
21,Cc1cc(N2CCN(c3ccc(C4CN(c5nc(-c6ccncc6F)cc(=O)n5C)CCO4)cc3)CC2)n(-c2ccccc2)n1 (stereo unspecified),Active
22,Cn1c(N2CCO[C@@H](c3ccc(N(C(=O)c4ccccc4)C4CCCCC4)cc3)C2)nc(-c2ccncc2F)cc1=O,Active
23,Cn1c(N2CCO[C@@H](c3ccc(N4CCOC4=O)cc3)C2)nc(-c2ccncc2F)cc1=O,Active
24,Cn1c(N2CCO[C@@H](c3ccc(N4CC[C@H](N5CCCCC5)C4)cc3)C2)nc(-c2ccncc2F)cc1=O,Active

row,Structure (SMILES),inhibition
1,CN(c1ccc([C@H]2CN(c3nc(-c4ccncc4F)cc(=O)n3C)CCO2)cc1)C1C2CC3CC(C2)CC1C3 (stereo partly specified),Active
2,Cn1c(N2CCO[C@@H](c3ccc(NS(=O)(=O)c4ccccc4)cc3)C2)nc(-c2ccncc2F)cc1=O,Active
3,CN(c1ccc([C@H]2CN(c3nc(-c4ccncc4F)cc(=O)n3C)CCO2)cc1)C1CCOCC1,Active
4,Cn1c(N2CCO[C@@H](c3ccc(C(=O)NCc4ccccc4)cc3)C2)nc(-c2ccncc2F)cc1=O,Active
5,CC(=O)N[C@H]1CCN(c2ccc([C@H]3CN(c4nc(-c5ccncc5F)cc(=O)n4C)CCO3)cc2)C1,Active
6,CN(c1ccc([C@H]2CN(c3nc(-c4ccncc4F)cc(=O)n3C)CCO2)cc1)C12CC3CC(CC(C3)C1)C2,Active
7,COc1ccc(C2(O)CCN(C)CC2)cc1[C@H]1CN(c2nc(-c3ccncc3F)cc(=O)n2C)CCO1,Active
8,Cn1c(N2CCO[C@@H](c3ccc(OC4CCN(C(=O)c5ccccc5)CC4)cc3)C2)nc(-c2ccncc2F)cc1=O,Active
9,Cn1c(N2CCO[C@@H](c3ccc(N4CCC(O)CC4)cc3)C2)nc(-c2ccncc2F)cc1=O,Active
10,COc1cc(Cl)ccc1[C@H]1CN(c2nc(-c3ccncc3F)cc(=O)n2C)CCO1,Active
11,Cn1c(N2CCO[C@@H](c3ccc(N4CC[C@@H](N5CCOCC5)C4)cc3)C2)nc(-c2ccncc2F)cc1=O,Active
12,CN(c1ccc([C@H]2CN(c3nc(-c4ccncc4F)cc(=O)n3C)CCO2)cc1)C1CCCCC1,Active
13,Cn1c(N2CCO[C@@H](c3ccc(N4CCC(O)C4)cc3)C2)nc(-c2ccncc2F)cc1=O (stereo partly specified),Active
14,CC(=O)N1CCN(CCOc2ccc([C@H]3CN(c4nc(-c5ccncc5F)cc(=O)n4C)CCO3)cc2)CC1,Active
15,CCN(CC)CCCOc1ccc([C@H]2CN(c3nc(-c4ccncc4F)cc(=O)n3C)CCO2)cc1,Active
16,CN1CCC(Oc2ccc([C@H]3CN(c4nc(-c5ccncc5F)cc(=O)n4C)CCO3)cc2)CC1,Active
17,COCCN(c1ccc([C@H]2CN(c3nc(-c4ccncc4F)cc(=O)n3C)CCO2)cc1)C1CCCCC1,Active
18,Cn1c(N2CCO[C@@H](c3ccc(Nc4ccccn4)cc3)C2)nc(-c2ccncc2F)cc1=O,Active
19,CCN(CC)c1ccc([C@H]2CN(c3nc(-c4ccncc4F)cc(=O)n3C)CCO2)c(OC)c1,Active
20,Cn1c(N2CCO[C@@H](c3ccc(N4CCCCC4)cc3)C2)nc(-c2ccncc2F)cc1=O,Active
21,COC(C)(C)C(=O)N(C)c1ccc([C@H]2CN(c3nc(-c4ccncc4F)cc(=O)n3C)CCO2)cc1,Active
22,Cn1c(N2CCO[C@@H](c3ccc(N(C(=O)C4CC4)C4CCCCC4)cc3)C2)nc(-c2ccncc2F)cc1=O,Active
23,Cn1c(N2CCO[C@@H](c3ccc(OCCCN4CCCCC4)cc3)C2)nc(-c2ccncc2F)cc1=O,Active

# Now from value to molecule:
row,inhibition,Structure (SMILES)
1,Active,CC(C)Oc1ccc([C@H]2CN(c3nc(-c4ccncc4F)cc(=O)n3C)CCO2)cc1
2,Active,CC(O)c1ccc([C@H]2CN(c3nc(-c4ccncc4F)cc(=O)n3C)CCO2)cc1 (stereo partly specified)
3,Active,Cn1c(N2CCO[C@@H](c3ccc(-c4nnco4)cc3)C2)nc(-c2ccncc2F)cc1=O
4,Active,CN(C)c1ccc([C@H]2CN(c3nc(-c4ccncc4F)cc(=O)n3C)CCO2)cc1
5,Active,Cn1c(N2CCN[C@@H](c3ccc(-c4ccc(Cl)cc4)cc3)C2)nc(-c2ccncc2F)cc1=O
6,Active,Cn1c(N2CCO[C@@H](c3ccc(NS(=O)(=O)CCl)cc3)C2)nc(-c2ccncc2F)cc1=O
7,Active,C[C@@H]1CN(c2ccc([C@H]3CN(c4nc(-c5ccncc5F)cc(=O)n4C)CCN3)cc2)C[C@H](C)O1
8,Active,CNC(=S)Nc1ccc([C@H]2CN(c3nc(-c4ccncc4F)cc(=O)n3C)CCO2)cc1
9,Active,Cn1c(N2CCN[C@@H](c3ccc(N4CCCC4)cc3)C2)nc(-c2ccncc2F)cc1=O
10,Active,Cn1c(N2CCN[C@H](c3ccc(C#N)cc3)C2)nc(-c2ccncc2F)cc1=O
11,Active,Cn1c(N2CCNC(c3ccc(-c4ncon4)cc3)C2)nc(-c2ccncc2F)cc1=O (stereo unspecified)
12,Active,Cn1c(N2CCN[C@@H](c3ccc(N4CCN(CCO)CC4)cc3)C2)nc(-c2ccncc2F)cc1=O
13,Active,CN1CCN(c2ccc([C@H]3CN(c4nc(-c5ccncc5F)cc(=O)n4C)CCN3)cc2)CC1
14,Active,Cc1nc(-c2ccc([C@H]3CN(c4nc(-c5ccncc5F)cc(=O)n4C)CCO3)cc2)no1
15,Active,CC(=O)c1ccc([C@H]2CN(c3nc(-c4ccncc4F)cc(=O)n3C)CCO2)cc1
16,Active,Cn1c(N2CCN[C@@H](c3ccc(-c4ccc(S(C)(=O)=O)cc4)cc3)C2)nc(-c2ccncc2F)cc1=O
17,Active,CN1CCC2(CCN(c3ccc([C@H]4CN(c5nc(-c6ccncc6F)cc(=O)n5C)CCN4)cc3)CC2)C1

row,inhibition,Structure (SMILES)
1,Active,CC(C)c1ccc(-c2ccc([C@H]3CN(c4nc(-c5ccncc5F)cc(=O)n4C)CCN3)cc2)cc1
2,Active,Cn1c(N2CCN[C@@H](c3ccc(N4CCC(O)C4)cc3)C2)nc(-c2ccncc2F)cc1=O (stereo partly specified)
3,Active,Cn1c(N2CCNC(c3ccc(N4CCNCC4)cc3)C2)nc(-c2ccncc2F)cc1=O (stereo unspecified)
4,Active,Cn1c(N2CCO[C@@H](c3ccc(OC(F)(F)F)cc3)C2)nc(-c2ccncc2F)cc1=O
5,Active,CSc1ccc(-c2ccc([C@H]3CN(c4nc(-c5ccncc5F)cc(=O)n4C)CCN3)cc2)cc1
6,Active,Cn1c(N2CCO[C@@H](c3ccc(F)cc3)C2)nc(-c2ccncc2F)cc1=O
7,Active,Cn1c(N2CCN[C@@H](c3ccc(-c4ccc(Cl)c(Cl)c4)cc3)C2)nc(-c2ccncc2F)cc1=O
8,Active,Cn1c(N2CCO[C@@H](c3ccc(C(C)(C)O)cc3)C2)nc(-c2ccncc2F)cc1=O
9,Active,CN(C)[C@@H]1CCN(c2ccc([C@H]3CN(c4nc(-c5ccncc5F)cc(=O)n4C)CCN3)cc2)C1
10,Active,CN(C)CCOc1ccc([C@H]2CN(c3nc(-c4ccncc4F)cc(=O)n3C)CCO2)cc1
11,Active,Cn1c(N2CCO[C@@H](c3ccc(-c4ncon4)cc3)C2)nc(-c2ccncc2F)cc1=O
12,Active,Cn1c(N2CCOC(c3ccc(Br)cc3)C2)nc(-c2ccncc2F)cc1=O (stereo unspecified)
13,Active,Cn1c(N2CCO[C@@H](c3ccc(N4CCNC4=O)cc3)C2)nc(-c2ccncc2F)cc1=O
14,Active,CNc1ccc([C@H]2CN(c3nc(-c4ccncc4F)cc(=O)n3C)CCO2)cc1
15,Active,Cn1c(N2CCO[C@@H](c3ccc(N4CC(O)C4)cc3)C2)nc(-c2ccncc2F)cc1=O
16,Active,CCc1nc(-c2ccc([C@H]3CN(c4nc(-c5ccncc5F)cc(=O)n4C)CCN3)cc2)no1
17,Active,CC(=O)N(C)c1ccc([C@H]2CN(c3nc(-c4ccncc4F)cc(=O)n3C)CCO2)cc1
